The target in this experiment is T1, α1 homomeric glycine receptors (Rattus norvegicus, UniProt P07727).
T1 construct: expressed in transfected cells; host or cells: HEK 293 (transient transfection by electroporation, cDNA in pCIS2 vector)
T1 sequence (P07727 29-457): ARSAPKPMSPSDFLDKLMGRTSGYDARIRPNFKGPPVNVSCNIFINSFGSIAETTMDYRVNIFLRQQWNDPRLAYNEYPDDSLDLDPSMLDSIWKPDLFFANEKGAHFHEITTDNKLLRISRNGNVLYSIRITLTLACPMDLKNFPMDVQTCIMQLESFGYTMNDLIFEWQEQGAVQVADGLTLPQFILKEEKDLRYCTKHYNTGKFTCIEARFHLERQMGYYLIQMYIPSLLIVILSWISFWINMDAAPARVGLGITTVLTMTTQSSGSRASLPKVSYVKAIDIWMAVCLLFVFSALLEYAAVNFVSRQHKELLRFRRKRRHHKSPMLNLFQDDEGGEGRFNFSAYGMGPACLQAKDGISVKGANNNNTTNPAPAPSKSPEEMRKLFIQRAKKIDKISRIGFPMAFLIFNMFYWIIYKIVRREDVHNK
Briefly: Whole-cell patch-clamp, Cl- current activated via α1 homomeric glycine receptors in transfected HEK 293 cells. The format is cell-based. The method, then:
Cells were cultured in Dulbecco's modified Eagle's medium (DMEM, Biochrom, Berlin, Germany), supplemented with 10% fetal calf serum (FCS, Biochrom, Berlin, Germany), 100 U ml^−1 penicillin and 100 μg ml^−1 streptomycin at 37° C. in a 5% CO2/air incubator. […] For co-transfection of rat α1 glycine receptor subunits, the corresponding cDNA, each subcloned in the pCIS2 expression vector (Invitrogen, San Diego, USA), was added to the suspension. To visualize transfected cells, they were co-transfected with cDNA of green fluorescent protein (GFP 10 μg ml^−1). For transfection, we used an electroporation device by EquiBio (Kent, UK).
The compounds according to the present invention under investigation were prepared as 1 M stock solution in ethanol, light-protected and stored in glass vessels at −20° C. Concentrations were calculated from the amount injected into the glass vials. Drug-containing vials were vigorously vortexed for 60 min. Glycine and picrotoxin were dissolved directly in bath solution.
Patch electrodes contained [mM] KCl 140, MgCl2 2, EGTA 11, HEPES 10, glucose 10; the bath solution contained [mM]
A tight electrical seal of several GΩ formed between the cell membrane and a patch-clamp electrode allows inward currents due to agonist-induced channel activation to resolve in the pA range. Electrical resistance of the pipettes was around 5 MΩ, corresponding to a total access resistance in the whole-cell configuration of about 10 MΩ. The compounds according to the present invention under investigation were applied to the cells via a smooth liquid filament achieved with a single outflow (glass tubing 0.15 mm inner diameter) connected to a piezo crystal. The cells were placed at the interface between this filament and the continuously flowing background solution. When a voltage pulse was applied to the piezo, the tube was moved up and down onto or away from the cell under investigation. Correct positioning of the cell in respect to the liquid filament was ensured applying a saturating (1000 μM) glycine pulse before and after each test experiment. Care was taken to ensure that the amplitude and the shape of the glycine-activated current had stabilized before proceeding with the experiment. Test solution and glycine (1000 μM) were applied via the same glass-polytetrafluoroethylen perfusion system, but from separate reservoirs. The contents of these reservoirs were mixed at a junction immediately before entering the superfusion chamber.
The compounds under test were applied alone in order to determine their direct agonistic effects. A new cell was used for each compound and each protocol, at least three different experiments were performed for each setting. The amount of the diluent ethanol corresponding to the highest compound concentration used was 34 000 μM.
For data acquisition and further analysis the inventors used the Axopatch 200B amplifier in combination with pClamp6 software (Axon Instruments, Union City, Calif., USA). Currents were filtered at 2 kHz. Fitting procedures were performed using a non-linear least-squares Marquardt-Levenberg algorithm. Details are provided in the appropriate figure legends or in the results section.
Activated currents were normalized to their own maximum response. The dose-response-curves were fitted according to (Inorm=[1+(EC50/[C])^nH]^−1), where Inorm is the current induced directly by the respective concentration [C] of the compound, normalized to the maximum inward current.
For orientation: The patch-clamp technique gives a direct electrical read-out from membranes.

Where [1] appears, read: EC50 (nM), α1 homomer, initial tests, Hill fit to normalised response, rat α1 receptors in HEK 293.

The EC50 is the concentration at which the effect is half-maximal. Regarding `CC(C)c1cc(-c2ccc(Cl)cc2)cc(C(C)C)c1O` [4-(p-Cl—Ph)-propofol, 4-(para-Chlorophenyl)-propofol], under setting [1], the EC50 came to 0.2 ± 0.3 nM. Also, the “nH (Hill coefficient), α1 homomer” value (initial tests, Hill fit to normalised response) turned out to be 1.1 ± 0.5.
For the molecule `CC(C)c1cc(-c2ccc(Cl)c(F)c2)cc(C(C)C)c1O` [p-(3-F,4-Cl—Ph)-propofol, Para-(3-Fluoro,4-chlorophenyl)-propofol], the EC50 is, setting by setting: under setting [1], 0.8 nM; (EC50, further series of tests (later tests)) 0.07 nM.

Values taken from US8507724B2 (priority 2008, dated 2013).
